This is an account of results in patent US6878690B2, “Compounds and methods” (PharmAxis Pty Ltd., priority 2000, dated 2005).

Each structure is given as a SMILES string. Where “and” joins values, the source holds several entries; their conditions need not be identical. Identical values can stand only once.

The test system of this experiment is passively transferred EAE. The experiment can be described thus: Passively transferred EAE induced with encephalitogenic MBP-specific T cell line (Example 23). The class given is in vivo, Lewis rats. Conditions: for clinical scores treated, mean: group mean; for clinical scores treated, mean / clinical scores treated: scale 0 to 5; for clinical scores treated: individual rats, 45 mg/kg/rat/day mini-osmotic pump. As to the method:
In order to study the effect of the agents of the present invention in vivo on a disease caused by T lymphocyte migration into a specific tissue, experiments were performed in the Lewis rat model of passively transferred EAE. Here, myelin basic protein (MBP)-specific T lymphocyte cell lines were generated from the draining lymph nodes of Lewis rats that had been immunised with MBP in Freund's complete adjuvant essentially according to the method of Ben-Nun et al. (1981) as described in Example 8. Thus, in this manner, donor T lymphocytes were generated from female 10 to 12 week old Lewis rats weighing 150 to 200 g. These rats were injected intradermally in a footpad of each hind foot with an emulsion of Guinea pig myelin basic protein (MBP; prepared according to the method of Deibler et al., 1972; incorporated herein by reference) in Freund's complete adjuvant (0.05 ml). The adjuvant emulsion was prepared by emulsifying equal volumes of a mixture of light mineral oil (Sigma) and normal saline containing Guinea pig myelin basic protein (0.5 mg/ml) and Mycobacterium butyricum (4 mg/ml; Difco). Thus, the total dose per rat was 50 micrograms of MBP and 400 micrograms of M. butyricum. Approximately 11 days following injection, the rats were euthanased and the draining lymph nodes (popliteal and inguinal) removed aseptically by blunt dissection and placed into mixed lymphocyte culture medium. This medium was prepared in the normal fashion from Dulbecco's Modified Eagle's Medium (DMEM; GIBCO, Grand Island, N.Y.) supplemented with glucose, folic acid, L-asparagine, sodium bicarbonate, L-glutamine, sodium pyruvate, HEPES, 2-mercaptoethanol (5×10^−5 M), penicillin, streptomycin, neomycin, and 2% fetal calf serum. A single cell suspension was prepared from the lymph nodes in the usual manner by gently pushing the nodes through a stainless steel screen. The cells were washed twice in the culture medium and following this procedure, any red blood cells were lysed in the usual manner by treating with a solution of ammonium chloride, EDTA and sodium hydrogen carbonate (pH 7.3) and the preparation strained (Falcon 2350 cell strainer). The cells were washed again in the lymphocyte culture medium. All cell preparative steps were performed on ice. These cells were cultured asceptically for 72 hours at 37° C. in a humidified atmosphere containing 7.5% carbon dioxide at a concentration of 5 million cells per milliliter in the presence of MBP (0.06 mg/ml). The cells were collected and the lymphoblasts were isolated by centrifugation on a Ficoll (Pharmacia, Uppsala, Sweden) gradient in an identical manner to that described by Ben Nun et al. (1981). The fraction containing ≧90% lymphoblasts was cultured and propagated in Eagle's medium supplemented with 15% of a concanavalin A-stimulated lymphocyte supernatant to provide growth factors, 10% fetal calf serum, nonessential amino acids (Bio-Lab, Jerusalem, Israel); sodium pyruvate, 2-mercapto ethanol and antibiotics without added antigen. The cells were plated in 100 mm petri dishes at a concentration of 0.2 million cells/ml and replated every 3 or 4 days. Prior to transfer into Lewis recipients, the cells were restimulated in the presence of MBP (0.01 mg/ml) and irradiated syngeneic thymocytes for 4 days.
These cells were highly encephalitogenic sine as few as 500,000 cells were capable of inducing disease when injected into naïve Lewis rats. Thus, in a typical experiment a group of 5 female Lewis rats, approximately 9 weeks old, weighing 110±15 grams were anesthetised with diethyl ether and implanted with mini-osmotic pumps (Alzet 2002, Alza Corp., Palo Alto Calif., USA) containing phosphoric acid mono-(6-propyl-3,4,5-trihydroxy-tetrahydro-pyran-2-ylmethyl) ester mono sodium salt dissolved in normal saline at a concentration that delivered the drug at a rate of 45 mg/kg/rat/day. […]

Consider `CCCC1OC(COP(=O)(O)O)C(O)C(O)C1O` (stereo not shown) [phosphoric acid mono-(6-propyl-3,4,5-trihydroxy-tetrahydro-pyran-2-ylmethyl) ester], for which the “clinical scores treated, mean” value is 0 (day 4, 45 mg/kg/rat/day); 0.6 (day 5, 45 mg/kg/rat/day); 1 (day 6, 45 mg/kg/rat/day); 0.4 (day 7, 45 mg/kg/rat/day). Further, the clinical scores treated was 0 (day 4); 1 (3×) and 0 (2×) (day 5, 45 mg/kg); 2 (2×) and 0 (2×) and 1 (day 6, 45 mg/kg); 0 (3×) and 1 (2×) (day 7, 45 mg/kg). In addition, the “Mean maximum clinical score” value (treated group, 45 mg/kg/rat/day, control group 2.0) was “clinical score 1.0”. The “disease index (DI)” value (treated group, 45 mg/kg/rat/day, control group DI 160) was “DI 40”.
